Data: US20210290597A1, “METHOD OF TREATING A CONDITION ASSOCIATED WITH NEURODEGENERATION USING INHIBITORS OF OAT3” (Neuropore Therapies, Inc., priority 2018, published 2021)
Like-named read-outs stand apart in the source and are kept apart here.

Tests used:
OAT3 = target: T1, OAT3 (Homo sapiens, UniProt Q8TCC7); assay: Further OAT3 uptake inhibition assay (Table 2); assay type: cell-based; settings: human, MDCK-II cells expressing human OAT3, probe 10 μM PAH (p-aminohippurate); compound 1 μM; PAH 10 μM; mean and SD of triplicate
T1 construct: expressed in transfected cells; host or cells: MDCK-II
T1 sequence (Q8TCC7 1-542): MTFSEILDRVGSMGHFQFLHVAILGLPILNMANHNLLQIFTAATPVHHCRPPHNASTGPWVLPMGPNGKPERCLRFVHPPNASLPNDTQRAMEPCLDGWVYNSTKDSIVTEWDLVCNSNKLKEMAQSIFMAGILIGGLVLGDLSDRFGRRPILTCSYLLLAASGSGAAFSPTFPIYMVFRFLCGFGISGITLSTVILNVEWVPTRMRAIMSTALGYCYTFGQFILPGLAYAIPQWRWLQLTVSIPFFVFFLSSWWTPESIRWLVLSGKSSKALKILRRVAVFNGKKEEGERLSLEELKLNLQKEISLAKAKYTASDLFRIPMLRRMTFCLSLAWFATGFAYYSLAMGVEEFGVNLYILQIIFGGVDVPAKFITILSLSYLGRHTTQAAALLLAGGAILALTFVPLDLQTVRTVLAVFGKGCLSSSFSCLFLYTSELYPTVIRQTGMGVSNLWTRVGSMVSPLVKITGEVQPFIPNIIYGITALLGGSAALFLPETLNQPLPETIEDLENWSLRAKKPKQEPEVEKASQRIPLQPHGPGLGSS
Method: (§1) In a further assay, the effects of several other compounds (including compounds 2, 3, and 4) were assessed against OAT3. The assay was carried out using a similar procedure as described above, using para-aminohippurate (PAH) and estrone-3-sulfate (E3S) as the substrates for measuring OAT3-mediated transport. […] MDCK-II cells were grown in 96-well cell culture plates, and the cell plates are maintained at 37° C. in 5% CO2 atmosphere prior to initiation of the transport experiment. MDCK-II cells were maintained in DMEM with low glucose and 10% FBS. Cells passages up to 40 are seeded at 60K±10K cells/well on 96-well, transwell membrane plates approximately 24 hours before transfection. Transport assays were carried out approximately 48 hours after transfection. Radio-labeled para-aminohippurate ([3H]-PAH) and estrone-3-sulfate (E3S) were used as substrates for measuring OAT3-mediated transport, where the transport of the substrate was determined by radiometric detection. Probenecid was used as a reference inhibitor. Transport study samples were run in triplicate.
(§2) For uptake assays, the net transporter-mediated uptake rate (V) of the substrate by each SLC transporter was calculated as follows:
(§3) Transporter-mediated uptake rate(pmol/min/cm^2)=((Cellular accumulation in cells expressing the transporter)−(Mean cellular accumulation in control cells))/Incubation time.
(§4) Percent inhibition was calculated by dividing the transporter-mediated uptake rate in presence of the test article or the reference inhibitor by the transporter-mediated uptake rate in presence of vehicle control:
(§5) Percent inhibition=100−(100×(transporter-mediated uptake rate)with inhibitor/(transporter-mediated uptake rate)vehicle control)
(§6) For uptake assays, statistical analyses using an unpaired t test was performed between transporter-mediated uptake rate or ATP-dependent transport rate of probe substrate with vehicle control and the inhibitor. A p value of <0.05 was considered statistically significant.
(§7) Table 2 summarizes the inhibitory activity of these compounds against OAT3 in the uptake of probe substrate PAH (p-aminohippurate) or E3S (estrone-3-sulfate). The percent inhibition values were determined by testing compounds at a single concentration of 1 μM with a PAH concentration of 10 μM. Data represent the mean and standard deviation of triplicate samples. The IC50 values were calculated by means of a concentration response curve with a compound concentration range of 0.03-10 μM and a probe substrate concentration of 10 μM PAH or 0.1 μM E3S. The percent inhibition at the various concentrations was run in triplicate and the IC50 value was determined by non-linear regression using GraphPad Prism.

human transporter OAT3 = target: T2, human transporter OAT3 (Homo sapiens, UniProt Q8TCC7); assay: Further OAT3 uptake inhibition assay (Table 2); assay type: cell-based; settings: compound 0.03-10 μM
T2 construct: expressed in transfected cells; host or cells: MDCK-II
T2 sequence (Q8TCC7 1-542): T1 sequence (Q8TCC7 1-542)
Method: as §1, §2, §3, §4, §5, §6, §7

[1] = 0.1 μM E3S, read-out: OAT3 inhibition substrate = E3S (IC50)
[2] = 10 μM PAH, read-out: OAT3 inhibition substrate = PAH (IC50)

| SMILES | inhibition at 1 μM (OAT3) | IC50 (human transporter OAT3; [1]) | IC50 (human transporter OAT3; [2]) |
| --- | --- | --- | --- |
| CSc1nncn1-c1ccc(S(=O)(=O)c2ccc(Cl)c(C(F)(F)F)c2)cc1 [Compound 26, 4-(4-((4-chloro-3-(trifluoromethyl)phenyl)sulfonyl)phenyl)-3-(methylthio)-4H-1,2,4-triazole] | 9.78% | 8.63 µM | 7.67 µM |
| COc1cccc(S(=O)(=O)c2ccc(-n3cn[nH]c3=S)cc2)c1 [Compound 12, 4-(4-((3-methoxyphenyl)sulfonyl)phenyl)-2,4-dihydro-3H-1,2,4-triazole-3-thione] | 48.4% | – | – |
| CCN(CC)c1cc(S(=O)(=O)c2ccc(Cl)c(C(F)(F)F)c2)ccc1-n1cn[nH]c1=S [Compound 21, 4-(4-((4-chloro-3-(trifluoromethyl)phenyl)sulfonyl)-2-(diethylamino)phenyl)-2,4-dihydro-3H-1,2,4-triazole-3-thione] | 48.2% | – | – |
| CN1CCN(c2cc(S(=O)(=O)c3ccc(Cl)c(C(F)(F)F)c3)ccc2-n2cn[nH]c2=S)CC1 [Compound 20, 4-(4-((4-chloro-3-(trifluoromethyl)phenyl)sulfonyl)-2-(4-methylpiperazin-1-yl)phenyl)-2,4-dihydro-3H-1,2,4-triazole-3-thione] | 17.2% | – | – |
| FC(F)(F)c1cc(Oc2ccc(-n3cn[nH]c3=S)cc2)ccc1Cl [Compound 30, 4-(4-(4-chloro-3-(trifluoromethyl)phenoxy)phenyl)-2,4-dihydro-3H-1,2,4-triazole-3-thione] | 86.3% | – | – |
| O=S(=O)(c1ccc(-n2cn[nH]c2=S)c(N2CCCCC2)c1)c1ccc(Cl)c(C(F)(F)F)c1 [Compound 19, 4-(4-((4-chloro-3-(trifluoromethyl)phenyl)sulfonyl)-2-(piperidin-1-yl)phenyl)-2,4-dihydro-3H-1,2,4-triazole-3-thione] | 43% | – | – |
| O=S(=O)(c1ccc(-n2cc[nH]c2=S)cc1)c1ccc(Cl)c(C(F)(F)F)c1 [Compound 31, 1-(4-(4-chloro-3-(trifluoromethyl)phenylsulfonyl)phenyl)-1H-imidazole-2(3H)-thione] | -1.05% | – | – |
| O=S(=O)(c1ccc(-n2cn[nH]c2=S)cc1)c1cccc(C(F)(F)F)c1 [Compound 11, 4-(4-((3-(trifluoromethyl)phenyl)sulfonyl)phenyl)-2,4-dihydro-3H-1,2,4-triazole-3-thione] | 58.6% | – | – |
| O=S(=O)(Nc1ccc(Cl)c(C(F)(F)F)c1)c1ccc(-n2cn[nH]c2=S)cc1 [Compound 33, N-(4-chloro-3-(trifluoromethyl)phenyl)-4-(5-thioxo-1H-1,2,4-triazol-4(5H)-yl)benzenesulfonamide] | 94.1% | – | – |
| O=S(=O)(c1ccccc1)c1ccc(-n2cn[nH]c2=S)cc1 [Compound 3, 4-(4-(phenylsulfonyl)phenyl)-2,4-dihydro-3H-1,2,4-triazole-3-thione] | 33.1% | – | – |
| CCOCCOc1cc(S(=O)(=O)c2ccc(Cl)c(C(F)(F)F)c2)ccc1-n1cn[nH]c1=S [Compound 22, 4-(4-((4-chloro-3-(trifluoromethyl)phenyl)sulfonyl)-2-(2-ethoxyethoxy)phenyl)-2,4-dihydro-3H-1,2,4-triazole-3-thione] | 79.5% | – | – |
| Nc1ncc(-c2cc(N3CCOCC3)cc(S(=O)(=O)c3ccccc3)c2)cn1 [Compound X2] | – | > 30 µM | > 30 µM |
| Cc1cc(S(=O)(=O)c2ccc(-n3cn[nH]c3=S)cc2)ccc1Cl [Compound 5, 4-(4-((4-chloro-3-methylphenyl)sulfonyl)phenyl)-2,4-dihydro-3H-1,2,4-triazole-3-thione] | 86.5% | – | – |
| O=c1[nH]ccn1-c1ccc(S(=O)(=O)c2ccc(Cl)c(C(F)(F)F)c2)cc1 [Compound 32, 1-(4-((4-chloro-3-(trifluoromethyl)phenyl)sulfonyl)phenyl)-1,3-dihydro-2H-imidazol-2-one] | -9.18% | – | – |
| O=S(=O)(c1ccc(Cl)cc1)c1ccc(-n2cn[nH]c2=S)cc1 [Compound 4, 4-(4-((4-chlorophenyl)sulfonyl)phenyl)-2,4-dihydro-3H-1,2,4-triazole-3-thione] | 76.3% | – | – |
| CS(=O)(=O)N1CCN(Cc2nnc(Nc3ccc(S(=O)(=O)c4ccc(Cl)cc4)cc3)s2)CC1 [Compound X1] | – | > 30 µM | > 30 µM |
| CN(C)c1cccc(S(=O)(=O)c2ccc(-n3cn[nH]c3=S)cc2)c1 [Compound 15, 4-(4-((3-(dimethylamino)phenyl)sulfonyl)phenyl)-2,4-dihydro-3H-1,2,4-triazole-3-thione] | 60.1% | – | – |
| O=S(=O)(c1ccc(-n2cn[nH]c2=S)c(N2CCOCC2)c1)c1ccc(Cl)c(C(F)(F)F)c1 [Compound 2, 4-(4-((4-chloro-3-(trifluoromethyl)phenyl)sulfonyl)-2-morpholinophenyl)-2,4-dihydro-3H-1,2,4-triazole-3-thione] | 48% | 1.9 µM | 1.36 µM |
